Source: ChEMBL document CHEMBL1137289, “Structure-activity relationships of novel antibacterial translation inhibitors: 3,5-diamino-piperidinyl triazines” (Bioorg Med Chem Lett, 2006)
In brackets after ≈: the same amount, converted by molar mass.

Key:
[1] = (§1) Cytotoxicity against CEM T cells after 72 hrs by proliferation assay; assay type: cell-based, CCRF-CEM; settings: human, CCRF-CEM (CEM) T cells
Escherichia coli [2] = assay: Inhibition of protein synthesis in Escherichia coli S30 extracts by coupled transcription-translation assay; assay type: functional
Staphylococcus aureus = assay: microbe, parasite or virus in culture; settings: ATCC 25923
Description: Antibacterial activity against Staphylococcus aureus ATCC 25923

Escherichia coli [3] = assay: microbe, parasite or virus in culture; settings: ATCC 25922
Description: Antibacterial activity against Escherichia coli ATCC 25922

Pseudomonas aeruginosa = assay: Antibacterial activity against Pseudomonas aeruginosa ATCC 27853; assay type: functional
Escherichia coli [4] = assay: Antibacterial activity against isogenic permeable mutant Escherichia coli LMG194; assay type: functional
Escherichia coli [5] = assay: Antibacterial activity against wild type impermeable Escherichia coli LMG194; assay type: functional
CCRF-CEM = assay: as §1; assay type: cell-based; settings: human, ccrf-cem, 72 h

Compound | IC50 (Escherichia coli [2]; Escherichia coli) [µM] | MIC (Staphylococcus aureus) [µg/mL] | MIC (Escherichia coli [3]) [µg/mL] | MIC (Escherichia coli [5]) [µg/mL] | further results
N[C@@H]1C[C@H](N)CN(c2nc(Nc3ccc(C(=O)CC(=O)Nc4ccc5c(c4)OC(F)(F)O5)cc3)nc(N3C[C@H](N)C[C@H](N)C3)n2)C1 | 6 | 8 (≈ 12.5 µM) | 4 (≈ 6.25 µM) | – | CC50 at 72 h [1]: 146 µM; MIC (Pseudomonas aeruginosa): 1 µg/mL (≈ 1.56 µM)
N[C@@H]1C[C@H](N)CN(c2nc(Nc3ccc(F)cc3)nc(N3C[C@H](N)C[C@H](N)C3)n2)C1 | 3 | 16 (≈ 38.4 µM) | 64 (≈ 154 µM) | 32 (≈ 76.8 µM) | MIC (Escherichia coli [4]): 4 µg/mL (≈ 9.6 µM)
N[C@@H]1C[C@H](N)CN(c2nc(Nc3ccc(NC(=O)C(=O)c4c[nH]c5ccccc45)c(O)c3)nc(N3C[C@H](N)C[C@H](N)C3)n2)C1 | 4 | 16 (≈ 26.6 µM) | 1 (≈ 1.66 µM) | – | CC50 at 72 h [1]: 92 µM; MIC (Pseudomonas aeruginosa): ≤ 0.5 µg/mL
N[C@@H]1C[C@H](N)CN(c2nc(Nc3ccc(Br)cc3)nc(N3C[C@H](N)C[C@H](N)C3)n2)C1 | 4 | > 64 | > 64 | > 64 | MIC (Escherichia coli [4]): 4 µg/mL (≈ 8.38 µM)
N[C@@H]1C[C@H](N)CN(c2nc(Nc3ccc4c(c3)CCC4)nc(N3C[C@H](N)C[C@H](N)C3)n2)C1 | 15 | 32 (≈ 73 µM) | > 64 | 64 (≈ 146 µM) | MIC (Escherichia coli [4]): 8 µg/mL (≈ 18.2 µM)
N[C@@H]1C[C@H](N)CN(c2nc(Nc3ccc([N+](=O)[O-])cc3)nc(N3C[C@H](N)C[C@H](N)C3)n2)C1 | 4 | 32 (≈ 72.2 µM) | 32 (≈ 72.2 µM) | 32 (≈ 72.2 µM) | MIC (Escherichia coli [4]): 4 µg/mL (≈ 9.02 µM)
N[C@@H]1C[C@H](N)CN(c2nc(Nc3ccc(O)cc3)nc(N3C[C@H](N)C[C@H](N)C3)n2)C1 | 11 | > 64 | > 64 | > 64 | –
Cc1cc(C)cc(Nc2nc(N3C[C@H](N)C[C@H](N)C3)nc(N3C[C@H](N)C[C@H](N)C3)n2)c1 | 13 | 32 (≈ 75 µM) | 64 (≈ 150 µM) | > 64 | –
NC[C@H]1O[C@H](O[C@H]2[C@H](O)[C@@H](O[C@H]3O[C@H](CO)[C@@H](O)[C@H](N)[C@H]3O)[C@H](N)C[C@@H]2N)[C@H](O)[C@@H](O)[C@@H]1O [KANAMYCIN] | 0.4 | – | – | – | –
CN(C)c1ccc(Nc2nc(N3C[C@H](N)C[C@H](N)C3)nc(N3C[C@H](N)C[C@H](N)C3)n2)cc1 | 11 | > 64 | > 64 | > 64 | –
GENTAMICIN | – | – | – | – | CC50 (CCRF-CEM): > 300 µM; IC50 (Escherichia coli [2]): 0.03 µM
N[C@@H]1C[C@H](N)CN(c2nc(Nc3ccccc3F)nc(N3C[C@H](N)C[C@H](N)C3)n2)C1 | 5 | > 64 | > 64 | > 64 | –

Second part, led by results:

IC50 (Escherichia coli [2]; Escherichia coli) [µM] | Compound | MIC (Staphylococcus aureus) [µg/mL] | MIC (Escherichia coli [3]) [µg/mL] | MIC (Escherichia coli [5]) [µg/mL] | further results
290 | CN(C)c1nc(N2C[C@H](N)C[C@H](N)C2)nc(N2C[C@H](N)C[C@H](N)C2)n1 | – | – | – | –
170 | NNc1nc(N2C[C@H](N)C[C@H](N)C2)nc(N2C[C@H](N)C[C@H](N)C2)n1 | – | – | – | –
45 | N[C@@H]1C[C@H](N)CN(c2nc(NO)nc(N3C[C@H](N)C[C@H](N)C3)n2)C1 | – | – | – | –
4 | N[C@@H]1C[C@H](N)CN(c2nc(Nc3ccc(C(=O)CC(=O)Nc4ccccc4Cl)cc3)nc(N3C[C@H](N)C[C@H](N)C3)n2)C1 | 16 (≈ 26.9 µM) | 4 (≈ 6.73 µM) | – | CC50 at 72 h [1]: 71 µM; MIC (Pseudomonas aeruginosa): ≤ 1 µg/mL
42 | N[C@@H]1C[C@H](N)CN(c2nc(Cl)nc(N3C[C@H](N)C[C@H](N)C3)n2)C1 | – | – | – | –
4 | N[C@@H]1C[C@H](N)CN(c2nc(Nc3ccc(C(=O)Nc4ccc5[nH]cnc5c4)c(O)c3)nc(N3C[C@H](N)C[C@H](N)C3)n2)C1 | – | 8 (≈ 13.9 µM) | – | –
180 | CCN(CC)c1nc(N2C[C@H](N)C[C@H](N)C2)nc(N2C[C@H](N)C[C@H](N)C2)n1 | – | – | – | –
8 | Nc1ccc(Nc2nc(N3C[C@H](N)C[C@H](N)C3)nc(N3C[C@H](N)C[C@H](N)C3)n2)cc1 | – | – | – | –
5 | N[C@@H]1C[C@H](N)CN(c2nc(N3C[C@H](N)C[C@H](N)C3)nc(N3CCc4cc(Br)ccc43)n2)C1 | – | 16 (≈ 31.8 µM) | – | –
4 | N[C@@H]1C[C@H](N)CN(c2nc(Nc3cccc(NC(=O)c4cccc(O)c4O)c3)nc(N3C[C@H](N)C[C@H](N)C3)n2)C1 | – | 8 (≈ 14.6 µM) | – | –
62 | CNc1nc(N2C[C@H](N)C[C@H](N)C2)nc(N2C[C@H](N)C[C@H](N)C2)n1 | – | – | – | –
10 | N[C@@H]1C[C@H](N)CN(c2nc(Nc3ccc(C(=O)Nc4ccc(Cl)c(Cl)c4)c(O)c3)nc(N3C[C@H](N)C[C@H](N)C3)n2)C1 | – | 2 (≈ 3.32 µM) | – | –
7 | N[C@@H]1C[C@H](N)CN(c2nc(Nc3ccc(NC(=O)c4ccc(Cl)cc4)c(O)c3)nc(N3C[C@H](N)C[C@H](N)C3)n2)C1 | 16 (≈ 28.2 µM) | 2 (≈ 3.52 µM) | – | CC50 at 72 h [1]: 180 µM; MIC (Pseudomonas aeruginosa): ≤ 0.5 µg/mL
